Experimental data taken from ChEMBL document CHEMBL1201862, “PubChem BioAssay data set” (2004).
The source made the active and inactive calls.

Legend:
[1] = system: P388/ADR; assay: cells; type: functional; conditions: Mus musculus
[2] = system: P388; assay: cells; type: functional; conditions: Mus musculus
[3] = system: SN12K1; assay: cells; type: functional; conditions: Homo sapiens
[4] = biological target: T1, Ubiquitin-conjugating enzyme E2 N (Homo sapiens, UniProt P61088); type: functional;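 note: Dose-response confirmation in a TR-FRET assay detecting UBC13-driven polyubiquitin chain formation, inhibition measured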
T1 sequence (P61088 whole entry): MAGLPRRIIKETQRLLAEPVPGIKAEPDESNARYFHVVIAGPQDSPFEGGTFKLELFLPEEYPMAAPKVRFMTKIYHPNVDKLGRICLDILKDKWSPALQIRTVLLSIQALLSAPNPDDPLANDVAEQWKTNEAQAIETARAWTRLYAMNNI

[5] = biological target: T2, High affinity choline transporter 1 (Homo sapiens, UniProt Q9GZV3); assay: CHT inhibitors, dose response, cell-based, 5-point CRC, membrane potential dye (AID 504840); type: functional
T2 sequence (Q9GZV3 whole entry): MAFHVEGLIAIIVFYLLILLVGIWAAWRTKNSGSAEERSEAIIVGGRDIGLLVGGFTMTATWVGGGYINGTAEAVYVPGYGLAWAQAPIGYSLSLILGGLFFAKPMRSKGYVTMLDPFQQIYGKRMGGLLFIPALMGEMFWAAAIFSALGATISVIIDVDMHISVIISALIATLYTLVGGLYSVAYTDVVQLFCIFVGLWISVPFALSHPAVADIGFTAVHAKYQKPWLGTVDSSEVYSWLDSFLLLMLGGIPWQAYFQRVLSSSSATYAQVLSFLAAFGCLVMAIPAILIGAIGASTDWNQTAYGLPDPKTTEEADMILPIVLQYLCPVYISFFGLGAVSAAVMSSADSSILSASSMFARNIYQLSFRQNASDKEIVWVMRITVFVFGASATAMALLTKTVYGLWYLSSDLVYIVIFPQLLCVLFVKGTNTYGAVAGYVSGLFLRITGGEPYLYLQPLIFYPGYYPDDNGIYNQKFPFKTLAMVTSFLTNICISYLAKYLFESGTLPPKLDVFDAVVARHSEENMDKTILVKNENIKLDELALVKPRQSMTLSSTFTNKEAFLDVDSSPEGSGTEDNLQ

[6] = biological target: FAD-linked sulfhydryl oxidase ALR (Homo sapiens, UniProt P55789); assay: inhibitors of human ALR sulfhydryl oxidase, dose response, biochemical, H2O2 detection, luminescence, cherry-pick (AID 493248)
[7] = biological target: DNA dC->dU-editing enzyme APOBEC-3G (Homo sapiens, UniProt Q9HC16); assay: Dose Response confirmation of small molecule APOBEC3G DNA Deaminase Inhibitors via a fluorescence-based single-stranded DNA deaminase assay. [Related pubchem assays (depositor defined):AID493012, AID493028]; type: functional
[8] = biological target: DNA dC->dU-editing enzyme APOBEC-3A (Homo sapiens, UniProt P31941); assay: APOBEC3A DNA deaminase inhibitors, dose response, biochemical (AID 504722); type: functional
[9] = ZM109 Env clade C HIV-1 fusion inhibitors, dose response, HeLa effector, CEM target cells, luciferase, cherry-pick (AID 652058); type: functional, cell-based
[10] = inhibitors of HIV Env-driven cell fusion, dose response, cherry-pick (AID 652057); type: functional, cell-based
[11] = off-target signal loss in HeLa-CEM21 co-culture – HeLa F-luc CTL cells, cherry-picked, counter-screen for HIV-1 Env fusion inhibitor project, dose response (AID 652040); type: functional, cell-based;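 note: potency for signal decrease marking cytotoxic or nonspecific inhibition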
[12] = inhibitors of clade B AD8 Env fusion, dose response, cell-based, cherry-pick (AID 652062); type: functional;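 note: luciferase signal from cell-cell fusion driven by HIV-1 clade B AD8 Env; potency is for inhibitors of fusion seen as a drop in luminescence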
[13] = THP-1 cell cytotoxicity, dose response, cytotoxicity control for non-replicating M. tuberculosis project (AID 489025); type: functional
[14] = cells; type: functional
[15] = Vero E6 cell cytotoxicity, dose response, cytotoxicity control for non-replicating M. tuberculosis project, secondary assay (AID 492998); type: functional, VeroE6; conditions: Vero C1008
[16] = biological target: Genome polyprotein (dengue virus type 2, UniProt P29990); assay: Dengue-2 NS5 methyltransferase inhibitors, primary screen, biochemical, confirmation dose response (AID 588689); type: functional
[17] = biological target: T3, Histone-lysine N-methyltransferase NSD2 (Homo sapiens, UniProt O96028); type: biochemical
T3 sequence (O96028 whole entry): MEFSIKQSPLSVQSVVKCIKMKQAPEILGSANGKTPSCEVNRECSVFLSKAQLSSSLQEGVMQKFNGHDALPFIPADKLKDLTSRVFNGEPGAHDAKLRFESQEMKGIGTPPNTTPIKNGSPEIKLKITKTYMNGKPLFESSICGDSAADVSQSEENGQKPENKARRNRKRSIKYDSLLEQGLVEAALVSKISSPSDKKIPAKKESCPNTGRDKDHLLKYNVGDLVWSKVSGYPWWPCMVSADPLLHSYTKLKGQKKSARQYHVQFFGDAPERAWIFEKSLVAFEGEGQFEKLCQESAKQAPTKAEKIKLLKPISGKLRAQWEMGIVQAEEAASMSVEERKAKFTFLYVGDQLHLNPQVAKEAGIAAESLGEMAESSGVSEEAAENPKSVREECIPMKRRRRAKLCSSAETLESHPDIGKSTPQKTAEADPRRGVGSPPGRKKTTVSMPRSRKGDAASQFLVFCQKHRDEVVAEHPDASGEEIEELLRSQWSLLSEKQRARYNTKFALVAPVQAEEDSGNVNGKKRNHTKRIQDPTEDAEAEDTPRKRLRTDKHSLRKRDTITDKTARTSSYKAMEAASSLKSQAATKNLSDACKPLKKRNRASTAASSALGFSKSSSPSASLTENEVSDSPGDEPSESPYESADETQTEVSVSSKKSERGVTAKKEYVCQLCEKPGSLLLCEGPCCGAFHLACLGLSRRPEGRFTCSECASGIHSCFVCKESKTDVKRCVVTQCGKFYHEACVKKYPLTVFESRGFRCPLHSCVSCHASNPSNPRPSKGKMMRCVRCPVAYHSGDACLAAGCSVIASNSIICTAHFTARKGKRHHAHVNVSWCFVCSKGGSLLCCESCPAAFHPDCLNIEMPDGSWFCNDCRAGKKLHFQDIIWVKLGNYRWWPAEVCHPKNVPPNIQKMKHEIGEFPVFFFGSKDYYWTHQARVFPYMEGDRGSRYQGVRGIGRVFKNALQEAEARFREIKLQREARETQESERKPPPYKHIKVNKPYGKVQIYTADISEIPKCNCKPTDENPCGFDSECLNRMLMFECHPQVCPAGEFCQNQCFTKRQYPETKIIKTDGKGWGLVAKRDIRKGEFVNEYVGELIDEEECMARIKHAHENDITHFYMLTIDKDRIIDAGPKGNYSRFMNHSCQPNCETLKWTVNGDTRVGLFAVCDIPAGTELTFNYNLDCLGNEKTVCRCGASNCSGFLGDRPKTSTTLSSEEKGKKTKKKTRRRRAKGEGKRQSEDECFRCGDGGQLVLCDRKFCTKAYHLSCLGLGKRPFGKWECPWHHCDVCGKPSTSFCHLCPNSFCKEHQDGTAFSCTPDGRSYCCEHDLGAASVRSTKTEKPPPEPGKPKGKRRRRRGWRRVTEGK

[18] = biological target: T4, Rac GTPase-activating protein 1 (Homo sapiens, UniProt Q9H0H5); assay: MgcRacGAP GTPase-activating activity inhibitors, confirmation, biochemical, ADP Hunter fluorescence, primary and confirmatory (AID 624330); type: functional
T4 sequence (Q9H0H5 whole entry): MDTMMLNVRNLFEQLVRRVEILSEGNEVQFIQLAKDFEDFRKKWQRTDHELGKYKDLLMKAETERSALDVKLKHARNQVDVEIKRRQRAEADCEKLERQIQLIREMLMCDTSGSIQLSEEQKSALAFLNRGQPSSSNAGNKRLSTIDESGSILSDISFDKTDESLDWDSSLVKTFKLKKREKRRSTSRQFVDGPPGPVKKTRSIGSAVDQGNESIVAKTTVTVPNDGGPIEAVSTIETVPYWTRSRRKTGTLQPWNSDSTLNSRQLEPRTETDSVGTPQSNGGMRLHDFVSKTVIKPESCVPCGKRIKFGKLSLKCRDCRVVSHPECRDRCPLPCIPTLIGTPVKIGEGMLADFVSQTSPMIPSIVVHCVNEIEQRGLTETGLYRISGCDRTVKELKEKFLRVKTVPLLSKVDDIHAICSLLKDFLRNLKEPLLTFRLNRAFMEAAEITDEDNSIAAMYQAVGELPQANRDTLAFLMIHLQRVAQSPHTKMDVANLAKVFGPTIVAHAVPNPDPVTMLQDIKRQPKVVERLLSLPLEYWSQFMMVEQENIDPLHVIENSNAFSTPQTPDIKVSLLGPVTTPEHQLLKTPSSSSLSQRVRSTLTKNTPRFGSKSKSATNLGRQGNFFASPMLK

[19] = microbe, parasite or virus in culture; type: functional; conditions: Mycobacterium tuberculosis

Sequence of FAD-linked sulfhydryl oxidase ALR (P55789 whole entry): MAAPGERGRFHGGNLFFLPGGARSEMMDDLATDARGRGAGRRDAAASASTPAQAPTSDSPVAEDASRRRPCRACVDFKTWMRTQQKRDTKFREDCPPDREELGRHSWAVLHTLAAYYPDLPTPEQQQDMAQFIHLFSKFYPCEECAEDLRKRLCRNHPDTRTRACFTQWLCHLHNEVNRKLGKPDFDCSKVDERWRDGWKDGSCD
Sequence of DNA dC->dU-editing enzyme APOBEC-3A (P31941 whole entry, the tested form may be a part): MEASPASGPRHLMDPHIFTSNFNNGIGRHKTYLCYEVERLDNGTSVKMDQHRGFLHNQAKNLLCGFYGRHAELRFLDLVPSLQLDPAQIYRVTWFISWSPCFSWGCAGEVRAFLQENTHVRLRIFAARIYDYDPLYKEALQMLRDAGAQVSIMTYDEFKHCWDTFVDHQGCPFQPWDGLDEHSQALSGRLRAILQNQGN
Sequence of DNA dC->dU-editing enzyme APOBEC-3G (Q9HC16 whole entry): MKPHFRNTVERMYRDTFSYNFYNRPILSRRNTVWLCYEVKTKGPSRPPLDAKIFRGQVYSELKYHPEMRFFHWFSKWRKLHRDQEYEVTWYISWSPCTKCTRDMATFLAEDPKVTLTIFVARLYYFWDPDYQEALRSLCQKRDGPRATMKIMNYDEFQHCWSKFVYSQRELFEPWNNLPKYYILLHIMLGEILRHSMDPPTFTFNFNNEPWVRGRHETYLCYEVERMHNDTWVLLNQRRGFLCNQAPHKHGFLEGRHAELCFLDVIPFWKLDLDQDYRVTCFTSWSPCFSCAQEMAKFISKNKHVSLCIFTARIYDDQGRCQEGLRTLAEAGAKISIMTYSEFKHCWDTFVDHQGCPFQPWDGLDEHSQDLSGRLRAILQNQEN
Sequence of Genome polyprotein (P29990 2492-3391 limits assumed): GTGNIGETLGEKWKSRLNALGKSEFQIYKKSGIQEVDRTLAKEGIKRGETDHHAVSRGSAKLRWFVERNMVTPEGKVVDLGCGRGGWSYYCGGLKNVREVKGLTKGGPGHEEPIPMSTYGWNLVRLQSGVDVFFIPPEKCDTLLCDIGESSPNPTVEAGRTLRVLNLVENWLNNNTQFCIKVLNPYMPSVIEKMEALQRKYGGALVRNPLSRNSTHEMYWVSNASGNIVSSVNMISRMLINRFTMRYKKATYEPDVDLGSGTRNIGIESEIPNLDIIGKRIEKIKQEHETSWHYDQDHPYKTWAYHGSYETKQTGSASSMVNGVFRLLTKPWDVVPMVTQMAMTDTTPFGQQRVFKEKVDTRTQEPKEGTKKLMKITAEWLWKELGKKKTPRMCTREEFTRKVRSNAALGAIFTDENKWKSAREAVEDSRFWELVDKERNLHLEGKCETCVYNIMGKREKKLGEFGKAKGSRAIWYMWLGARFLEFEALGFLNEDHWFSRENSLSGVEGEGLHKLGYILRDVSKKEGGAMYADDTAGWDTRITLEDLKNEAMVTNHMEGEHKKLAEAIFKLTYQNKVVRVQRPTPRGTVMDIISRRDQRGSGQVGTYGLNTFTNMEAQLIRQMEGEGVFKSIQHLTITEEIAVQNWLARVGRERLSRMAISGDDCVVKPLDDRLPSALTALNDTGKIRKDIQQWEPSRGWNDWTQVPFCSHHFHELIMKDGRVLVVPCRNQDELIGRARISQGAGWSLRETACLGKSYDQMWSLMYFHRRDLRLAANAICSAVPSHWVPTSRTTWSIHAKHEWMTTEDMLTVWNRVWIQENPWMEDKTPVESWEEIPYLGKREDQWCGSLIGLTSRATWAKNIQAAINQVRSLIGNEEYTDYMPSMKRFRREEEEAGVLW

## O=NN(CCCl)C(=O)NC1CCC(=O)NC1=O (configuration not stated)
[1]
  GI50: 23.4 µM (inactive)
[2]
  GI50: 17.8 µM (inactive)
[3]
  GI50: 107 µM (inactive)

## O=C(C(=O)N1CCOCC1)c1cn(Cc2ccccc2Cl)c2ccccc12
[4]
  IC50: > 20 µM (inactive)

## COc1ccc(-c2csc(Cc3nnc4n3CCCCC4)n2)cc1
[5]
  IC50: 9.12 µM (active)

## Nc1ccc(-c2nc3cc(N)ccc3s2)cc1
[6]
  AC50: 1.43 µM (active)

## Clc1nnc(N2CCCCC2)c2ccccc12
[6]
  AC50: 17.1 µM (active)

## O=C(NCC1CCCCC1)C1(CC2CC(c3ccc(Cl)cc3)=NO2)CCNCC1 (configuration not stated)
[4]
  IC50: > 20 µM (inactive)

## COc1ccccc1CCNC(=O)c1ccc(OC)c(OC2CCN(C(C)C)CC2)c1
[5]
  IC50: 13.5 µM (active)

## CC(=O)NCCCc1c[nH]c2ccc(Cl)cc12
[6]
  AC50: 13.5 µM (active)

## CCn1c(CSc2nc3ccccc3[nH]2)n[nH]c1=S
[7]
  IC50: 5.44 µM (active)
[8]
  IC50: > 100 µM (inactive)

## CN(C)S(=O)(=O)c1ccc(N2CCCC2)c(C(=O)NCCc2ccc(F)cc2)c1
[9]
  AC50: 5.76 µM (active)
[10]
  AC50: 5.95 µM (active)
[11]
  AC50: 9.35 µM (active)
[12]
  AC50: 6.5 µM (active)

## CN(C)CCCNc1nc2sc3c(c2c(=O)n1CCc1ccccc1)CCCCC3
[4]
  IC50: > 20 µM (inactive)
[13]
  CC50: 19.5 µM (active)
[14]
  IC50: 23.3 µM (active)
[15]
  CC50: 14.4 µM (active)

## CCN(CC)S(=O)(=O)c1ccc(NC2c3ccccc3C(=O)N2Cc2ccc3c(c2)OCO3)cc1 (configuration not stated)
[9]
  AC50: 7.39 µM (active)
[10]
  AC50: 1.33 µM (active)
[11]
  AC50: 3.71 µM (active)

## CCOc1ccc(/C=C2\SC(=S)N(NS(=O)(=O)c3ccccc3)C2=O)cc1OC
[5]
  IC50: 5.37 µM (active)
[16]
  IC50: 71.2 µM (active)

## Cc1sc2ncnc(N3CCC(C(=O)Nc4cc(S(C)(=O)=O)ccc4Cl)CC3)c2c1C
[9]
  AC50: 3.3 µM (active)
[10]
  AC50: 8.97 µM (active)
[11]
  AC50: 30.5 µM (active)
[12]
  AC50: 12.3 µM (active)

## COC1C(C)OC(OC2CC(C)(O)Cc3cc4c(c(O)c32)C(=O)c2c(O)cc3c(c2C4=O)OC2OC3(C)C(O)C(N(C)C)C2O)C(OC)C1(C)OC (configuration not stated)
[1]
  GI50: 0.5 µM (active)
[2]
  GI50: 0.0228 µM (active)
[3]
  GI50: 0.0168 µM (active)

## COc1ccc(C)cc1NCc1ccc(OC)c(C)c1OC
[17]
  AC50: > 20 µM (inactive)
[18]
  IC50: 59.5 µM (active)

## Cc1ccnc(NCc2c(O)ccc3ccccc23)c1
[4]
  IC50: > 20 µM (inactive)

## CCCCCn1c(=O)c2ccccc2n2c(CCl)nnc12
[19]
  CC50: 11.7 µM (active)
[13]
  CC50: 19.2 µM (active)
[14]
  IC50: 0.67 µM (active)
[15]
  CC50: > 20 µM (active)

## COc1cccc(/C=C2\SC(N3CCCC(C)C3)=NC2=O)c1OC (configuration not stated)
[6]
  AC50: 5.2 µM (active)

## CC1(C)CC(=O)c2cnn(-c3nc4ccccc4[nH]3)c2C1
[6]
  AC50: 14.8 µM (active)

## COc1ccc(S(=O)(=O)N2CCCCC2)cc1NC(=O)Cc1ccsc1
[17]
  AC50: 17.1 µM (active)

## C[C@H]1CC[C@H](NC(=O)N(CCCl)N=O)CC1
[1]
  GI50: 9.73 µM (inactive)
[2]
  GI50: 9.53 µM (inactive)
[3]
  GI50: 26 µM (inactive)

## Cc1nnc(S)n1/N=C/c1ccc(-c2ccccc2[N+](=O)[O-])o1
[7]
  IC50: 4.2 µM (active)
[8]
  IC50: > 100 µM (inactive)

## COc1cc[n+](C)cc1
[1]
  GI50: > 100 µM (inactive)
[2]
  GI50: > 100 µM (inactive)
[3]
  GI50: > 100 µM (inactive)

## COc1cc(-c2ccc(/N=N/c3c(S(=O)(=O)O)cc4cc(S(=O)(=O)O)cc(N)c4c3O)c(OC)c2)ccc1/N=N/c1c(S(=O)(=O)O)cc2cc(S(=O)(=O)O)cc(N)c2c1O
[2]
  GI50: > 100 µM (inactive)
[3]
  GI50: > 100 µM (inactive)

## COC(=O)C1=C(C)N(Cc2ccc(Cl)cc2)C(=S)NC1c1ccc(OC)cc1 (configuration not stated)
[9]
  AC50: 5.23 µM (active)
[10]
  AC50: 3.25 µM (active)
[11]
  AC50: 5.7 µM (active)
[12]
  AC50: 12.6 µM (active)

## CCC[S+]([O-])c1nc(COC(=O)NC)c(COC(=O)NC)n1C (configuration not stated)
[1]
  GI50: > 100 µM (inactive)
[2]
  GI50: > 100 µM (inactive)
[3]
  GI50: > 100 µM (inactive)

## S=P(N1CC1)(N1CC1)N1CC1 [THIOTEPA]
[1]
  GI50: 7.41 µM (inactive)
[2]
  GI50: 6.93 µM (inactive)
[3]
  GI50: > 89.1 µM (inactive)
